# Source: patent US11964973B2 (priority 2019, dated 2024)
# Test system: human venous whole blood, CD8 positive population (pERK)
# Experiment: DGK human whole blood pERK assay
# Assay type: cell-based
# Conditions: Homo sapiens, CD8 positive, human whole blood pERK; read-out: DGK HWB
# Method: Assay 11: DGK Human Whole Blood pERK Assay
# Human whole blood ERK phosphorylation assay was performed with human venous whole blood obtained from healthy donors (drawn with Heparin as anti-coagulant). […] Heparinized human whole blood was added to the compound plate at 9 μL per well and incubated for one hour at 37° C. in a humidified 95%, air/5% CO2 incubator. After one hour of compound incubation, 1 μL of human anti-CD3 antibody (in-house) in the presence of cross-linking antibody goat anti-mouse IgG (4 μg/mL) was added to the well at 1 μg/mL final concentration for stimulation of pathway and additionally incubated for 15 minutes at 37° C. […] Samples analyzed using the Intellicyt® iQue Screener PLUS. The pERK activation was quantitated by the percentage of pERK positive population within CD8 positive population.
row,SMILES,EC50
1,"CC[C@@H]1CN(c2cc(=O)n(C)c3ccc(C#N)nc23)[C@H](C)C[C@@H]1Oc1cccc(C(F)(F)F)c1 [Example 309, 8-((2R,4S,5R)-5-ethyl-2-methyl-4-(3-(trifluoromethyl)phenoxy)piperidin-1-yl)-5-methyl-6-oxo-5,6-dihydro-1,5-naphthyridine-2-carbonitrile]",4 µM
2,"CC[C@@H]1CN(c2cc(=O)n(C)c3ccc(C#N)nc23)[C@H](C)C[C@H]1Oc1cccc(C(F)(F)F)c1 [Example 310, 8-((2R,4R,5R)-5-ethyl-2-methyl-4-(3-(trifluoromethyl)phenoxy)piperidin-1-yl)-5-methyl-6-oxo-5,6-dihydro-1,5-naphthyridine-2-carbonitrile]",9.9 µM
3,"Cc1ccc(O[C@@H]2C[C@H](C)N(c3cc(=O)n(C)c4ccc(C#N)nc34)C[C@@H]2C)cc1 [Example 312, 8-((2S,4R,5S)-2,5-dimethyl-4-(p-tolyloxy)piperidin-1-yl)-5-methyl-6-oxo-5,6-dihydro-1,5-naphthyridine-2-carbonitrile]",6 µM
4,"C[C@H]1CN(c2cc(=O)n(C)c3ccc(C#N)nc23)[C@@H](C)C[C@H]1Oc1cccc(Cl)c1 [Example 313, 8-((2S,4R,5S)-4-(3-chlorophenoxy)-2,5-dimethylpiperidin-1-yl)-5-methyl-6-oxo-5,6-dihydro-1,5-naphthyridine-2-carbonitrile]",7.1 µM
5,"C[C@H]1CN(c2cc(=O)n(C)c3ccc(C#N)nc23)[C@@H](C)C[C@H]1Oc1cccc(C#N)c1 [Example 314, 8-((2S,4R,5S)-4-(3-cyanophenoxy)-2,5-dimethylpiperidin-1-yl)-5-methyl-6-oxo-5,6-dihydro-1,5-naphthyridine-2-carbonitrile]",16 µM
6,"CCO[C@H]1CN(c2cc(=O)n(C)c3ccc(C#N)nc23)CC[C@@H]1Oc1ccc(OC(C)C)cc1 [Example 347, 8-((3S,4S)-3-ethoxy-4-(4-isopropoxyphenoxy)piperidin-1-yl)-5-methyl-6-oxo-5,6-dihydro-1,5-naphthyridine-2-carbonitrile]",0.35 µM
7,"CCO[C@H]1CN(c2cc(=O)n(C)c3ccc(C#N)nc23)CC[C@@H]1Oc1ccc(S(C)(=O)=O)cc1 [Example 354, 8-((3S,4S)-3-ethoxy-4-(4-(methylsulfonyl)phenoxy)piperidin-1-yl)-5-methyl-6-oxo-5,6-dihydro-1,5-naphthyridine-2-carbonitrile]",20 µM

# Same assay, conditions: Homo sapiens, CD8 positive, read-out: DGK HWB, human whole blood pERK
row,EC50,SMILES
1,13 µM,"CC[C@@H]1CN(c2cc(=O)n(C)c3ccc(C#N)nc23)[C@@H](C)C[C@H]1Oc1ccc(OC(C)C)cn1 [Example 296, 8-((2S,4R,5R)-5-ethyl-4-((5-isopropoxypyridin-2-yl)oxy)-2-methylpiperidin-1-yl)-5-methyl-6-oxo-5,6-dihydro-1,5-naphthyridine-2-carbonitrile]"
2,0.68 µM,"CC[C@@H]1CN(c2cc(=O)n(C)c3ccc(C#N)nc23)[C@H](C)C[C@H]1Oc1ccc(OC(C)C)cn1 [Example 297, 8-((2R,4R,5R)-5-ethyl-4-((5-isopropoxypyridin-2-yl)oxy)-2-methylpiperidin-1-yl)-5-methyl-6-oxo-5,6-dihydro-1,5-naphthyridine-2-carbonitrile]"
3,0.91 µM,"CC[C@@H]1CN(c2cc(=O)n(C)c3ccc(C#N)nc23)[C@H](C)C[C@@H]1Oc1ccc(OC(C)C)cn1 [Example 298, 8-((2R,4S,5R)-5-ethyl-4-((5-isopropoxypyridin-2-yl)oxy)-2-methylpiperidin-1-yl)-5-methyl-6-oxo-5,6-dihydro-1,5-naphthyridine-2-carbonitrile]"
4,0.78 µM,"CC[C@@H]1CN(c2cc(=O)n(C)c3ccc(C#N)nc23)[C@@H](C)C[C@@H]1Oc1ccc(OC(C)C)cn1 [Example 299, 8-((2S,4S,5R)-5-ethyl-4-((5-isopropoxypyridin-2-yl)oxy)-2-methylpiperidin-1-yl)-5-methyl-6-oxo-5,6-dihydro-1,5-naphthyridine-2-carbonitrile]"
5,8.3 µM,"CC[C@@H]1CN(c2nc(=O)n(C)c3ccc(Cl)nc23)[C@@H](C)C[C@H]1Oc1ccc(OC(C)C)cn1 [Example 300, 6-chloro-4-((2S,4R,5R)-5-ethyl-4-((5-isopropoxypyridin-2-yl)oxy)-2-methylpiperidin-1-yl)-1-methylpyrido[3,2-d]pyrimidin-2(1H)-one]"
6,11 µM,"CC[C@@H]1CN(c2nc(=O)n(C)c3ccc(C#N)nc23)[C@@H](C)C[C@H]1Oc1ccc(OC(C)C)cn1 [Example 301, 4-((2S,4R,5R)-5-ethyl-4-((5-isopropoxypyridin-2-yl)oxy)-2-methylpiperidin-1-yl)-1-methyl-2-oxo-1,2-dihydropyrido[3,2-d]pyrimidine-6-carbonitrile]"
7,0.38 µM,"CC[C@@H]1CN(c2nc(=O)n(C)c3ccc(C#N)nc23)[C@H](C)C[C@H]1Oc1ccc(OC(C)C)cn1 [Example 303, 4-((2R,4R,5R)-5-ethyl-4-((5-isopropoxypyridin-2-yl)oxy)-2-methylpiperidin-1-yl)-1-methyl-2-oxo-1,2-dihydropyrido[3,2-d]pyrimidine-6-carbonitrile]"
8,0.73 µM,"CC[C@@H]1CN(c2nc(=O)n(C)c3ccc(C#N)nc23)[C@H](C)C[C@@H]1Oc1ccc(OC(C)C)cn1 [Example 305, 4-((2R,4S,5R)-5-ethyl-4-((5-isopropoxypyridin-2-yl)oxy)-2-methylpiperidin-1-yl)-1-methyl-2-oxo-1,2-dihydropyrido[3,2-d]pyrimidine-6-carbonitrile]"
9,0.17 µM,"CC[C@@H]1CN(c2nc(=O)n(C)c3ccc(C#N)nc23)[C@@H](C)C[C@@H]1Oc1ccc(OC(C)C)cn1 [Example 307, 4-((2S,4S,5R)-5-ethyl-4-((5-isopropoxypyridin-2-yl)oxy)-2-methylpiperidin-1-yl)-1-methyl-2-oxo-1,2-dihydropyrido[3,2-d]pyrimidine-6-carbonitrile]"

# Same assay, conditions: human whole blood pERK; read-out: DGK HWB
row,SMILES,EC50
1,"CCO[C@H]1CN(c2cc(=O)n(C)c3ccc(C#N)nc23)CC[C@@H]1Oc1ccc(C(F)(F)F)cc1 [Example 343, 8-((3S,4S)-3-ethoxy-4-(4-(trifluoromethyl)phenoxy)piperidin-1-yl)-5-methyl-6-oxo-5,6-dihydro-1,5-naphthyridine-2-carbonitrile]",0.32 µM
2,"CCO[C@H]1CN(c2cc(=O)n(C)c3ccc(C#N)nc23)CC[C@@H]1Oc1ccc(C(F)(F)F)cc1 [Example 344, 8-((3S,4S)-3-ethoxy-4-(4-(trifluoromethyl)phenoxy)piperidin-1-yl)-5-methyl-6-oxo-5,6-dihydro-1,5-naphthyridine-2-carbonitrile]",20 µM
3,"CCO[C@H]1CN(c2cc(=O)n(C)c3ccc(C#N)nc23)CC[C@@H]1Oc1ccccc1C(F)(F)F [Example 345, 8-((3S,4S)-3-ethoxy-4-(2-(trifluoromethyl)phenoxy)piperidin-1-yl)-5-methyl-6-oxo-5,6-dihydro-1,5-naphthyridine-2-carbonitrile]",0.82 µM
4,"CCO[C@H]1CN(c2cc(=O)n(C)c3ccc(C#N)nc23)CC[C@@H]1Oc1ccccc1C(F)(F)F [Example 346, 8-((3S,4S)-3-ethoxy-4-(2-(trifluoromethyl)phenoxy)piperidin-1-yl)-5-methyl-6-oxo-5,6-dihydro-1,5-naphthyridine-2-carbonitrile]",20 µM
5,"CCO[C@H]1CN(c2cc(=O)n(C)c3ccc(C#N)nc23)CC[C@@H]1Oc1cccc(OC(F)(F)F)c1 [Example 351, 8-((3S,4S)-3-ethoxy-4-(3-(trifluoromethoxy)phenoxy)piperidin-1-yl)-5-methyl-6-oxo-5,6-dihydro-1,5-naphthyridine-2-carbonitrile]",0.21 µM
6,"CCO[C@H]1CN(c2cc(=O)n(C)c3ccc(C#N)nc23)CC[C@@H]1Oc1cccc(OC(F)(F)F)c1 [Example 352, 8-((3S,4S)-3-ethoxy-4-(3-(trifluoromethoxy)phenoxy)piperidin-1-yl)-5-methyl-6-oxo-5,6-dihydro-1,5-naphthyridine-2-carbonitrile]",12 µM
7,"CCO[C@H]1CN(c2cc(=O)n(C)c3ccc(C#N)nc23)CC[C@@H]1Oc1ccc2oc(C)nc2c1 [Example 355, 8-((3S,4S)-3-ethoxy-4-((2-methylbenzo[d]oxazol-5-yl)oxy)piperidin-1-yl)-5-methyl-6-oxo-5,6-dihydro-1,5-naphthyridine-2-carbonitrile]",20 µM
8,"CCO[C@H]1CN(c2cc(=O)n(C)c3ccc(C#N)nc23)CC[C@@H]1Oc1ccc2oc(C)nc2c1 [Example 356, 8-((3S,4S)-3-ethoxy-4-((2-methylbenzo[d]oxazol-5-yl)oxy)piperidin-1-yl)-5-methyl-6-oxo-5,6-dihydro-1,5-naphthyridine-2-carbonitrile]",3.9 µM

# Same assay, conditions: read-out: DGK HWB; human whole blood pERK
row,EC50,SMILES
1,4.7 µM,"C[C@@H]1CN(c2nc(=O)n(C)c3ccc(C#N)nc23)[C@H](C)CC1Oc1cccc(C(F)(F)F)c1 (stereo partly drawn) [Example 256, 4-((2R,5R)-2,5-dimethyl-4-(3-(trifluoromethyl)phenoxy)piperidin-1-yl)-1-methyl-2-oxo-1,2-dihydropyrido[3,2-d]pyrimidine-6-carbonitrile]"
2,0.8 µM,"C[C@@H]1CN(c2nc(=O)n(C)c3ccc(C#N)nc23)[C@H](C)CC1Oc1cccc(C(F)(F)F)c1 (stereo partly drawn) [Example 257, 4-((2R,5R)-2,5-dimethyl-4-(3-(trifluoromethyl)phenoxy)piperidin-1-yl)-1-methyl-2-oxo-1,2-dihydropyrido[3,2-d]pyrimidine-6-carbonitrile]"
3,20 µM,"CCO[C@H]1CN(c2cc(=O)n(C)c3ccc(C#N)nc23)CC[C@@H]1Oc1ccc(Cl)c(F)c1 [Example 357, 8-((3S,4S)-4-(4-chloro-3-fluorophenoxy)-3-ethoxypiperidin-1-yl)-5-methyl-6-oxo-5,6-dihydro-1,5-naphthyridine-2-carbonitrile]"
